Data from ChEMBL document CHEMBL3745680, “Meroterpenoids from a Tropical Dysidea sp. Sponge” (J Nat Prod, 2015).
Converted amounts (≈) assume the structure as drawn.

Legend:
Proteus hauseri = experiment: Antibacterial activity against Proteus hauseri NBRC 3851 after 24 hrs at 37 degC by broth dilution method; format: functional; settings: NBRC 3851, 24 h
Trichophyton rubrum = experiment: Antifungal activity against Trichophyton rubrum IFO 9185 after 48 to 72 hrs at 28 degC by serial 2-fold dilution method; format: functional
Escherichia coli = experiment: Antibacterial activity against Escherichia coli ATCC 35270 after 24 hrs at 37 degC by broth dilution method; format: functional; settings: ATCC 35270, 24 h
Candida albicans = experiment: Antifungal activity against Candida albicans ATCC 10231 after 48 to 72 hrs at 28 degC by serial 2-fold dilution method; format: functional
A549 = experiment: Cytotoxicity against human A549 cells assessed as reduction in cell viability after 72 hrs by MTT assay; format: functional, cell-based; settings: A549, 72 h
Kocuria rhizophila = experiment: Antibacterial activity against Kocuria rhizophila NBRC 12708 after 24 hrs at 37 degC by broth dilution method; format: functional; settings: NBRC 12708, 24 h
Aspergillus fumigatus = experiment: Antifungal activity against Aspergillus fumigatus HIC 6094 after 48 to 72 hrs at 28 degC by serial 2-fold dilution method; format: functional
K562 = experiment: Cytotoxicity against human K562 cells assessed as reduction in cell viability after 72 hrs by MTT assay; format: functional, cell-based; settings: K562, 72 h
Sortase A = target: T1, Sortase A (Staphylococcus aureus, UniProt Q9S446); experiment: Inhibition of Staphylococcus aureus ATCC 6538p sortase A expressed in Escherichia coli using dabcyl-QALPETGEE-edans as substrate incubated for 1 hr by fluorescence spectrophotometry analysis
T1 sequence (Q9S446 whole entry): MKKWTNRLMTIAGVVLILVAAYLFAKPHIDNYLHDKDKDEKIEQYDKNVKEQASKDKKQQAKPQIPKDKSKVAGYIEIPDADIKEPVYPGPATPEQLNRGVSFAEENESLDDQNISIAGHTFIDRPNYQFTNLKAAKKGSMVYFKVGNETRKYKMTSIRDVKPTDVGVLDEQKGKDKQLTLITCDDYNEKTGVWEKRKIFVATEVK

Salmonella enterica = experiment: Antibacterial activity against Salmonella enterica ATCC 14028 after 24 hrs at 37 degC by broth dilution method; format: functional; settings: ATCC 14028, 24 h
[1] = target: Sodium/potassium-transporting ATPase; experiment: Inhibition of Na+/K+ -ATPase in human intrauterine growth restriction placental membrane using 3-O-methylfluorescein phosphate by fluorometric method in presence of Kcl; format: tissue-based
[2] = test system: Trichophyton mentagrophytes; experiment: Antifungal activity against Trichophyton mentagrophytes IFO 40996 after 48 to 72 hrs at 28 degC by serial 2-fold dilution method; format: functional
[3] = Inhibition of Magnaporthe grisea Guy 11 isocitrate lyase using isocitrate as substrate by spectrophotometric based glyoxylate cycle assay; set-up: species or system Pyricularia grisea
Staphylococcus aureus = experiment: Antibacterial activity against Staphylococcus aureus ATCC 6538p after 24 hrs at 37 degC by broth dilution method; format: functional
Bacillus subtilis = experiment: Antibacterial activity against Bacillus subtilis ATCC 6633 after 24 hrs at 37 degC by broth dilution method; format: functional; settings: ATCC 6633, 24 h

Row | Compound | MIC (Proteus hauseri) [µg/mL] | MIC (Trichophyton rubrum) [µg/mL] | MIC (Escherichia coli) [µg/mL] | MIC (Candida albicans) [µg/mL] | IC50 (A549) [µM] | MIC (Kocuria rhizophila) [µg/mL] | MIC (Aspergillus fumigatus) [µg/mL] | IC50 (K562) [µM] | IC50 (Sortase A) [µM] | MIC (Salmonella enterica) [µg/mL] | IC50 [1] [µM] | MIC [2] [µg/mL] | IC50 [3] [µg/mL] | MIC (Staphylococcus aureus) [µg/mL] | MIC (Bacillus subtilis) [µg/mL]
1 | C=C1CCC[C@H]2[C@](C)(CC3=CC(=O)C=C(N(C)CCS(=O)(=O)O)C3=O)[C@@H](C)CC[C@@]12C | 128 (≈ 285 µM) | > 128 | > 128 | 128 (≈ 285 µM) | 6.1 | 64 (≈ 142 µM) | > 128 | 5.7 | > 285 | 128 (≈ 285 µM) | 94.5 | 128 (≈ 285 µM) | 93.3 (≈ 208 µM) | 128 (≈ 285 µM) | 64 (≈ 142 µM)
2 | C=C1CCC[C@@]23C4=C(C[C@]2(C)[C@@H](C)CC[C@@]13C)C(=O)C=C(NC)C4=O | > 128 | > 128 | > 128 | > 128 | 4.9 | 2 (≈ 5.89 µM) | > 128 | 4 | > 377 | > 128 | > 377 | 128 (≈ 377 µM) |  | > 128 | > 128
3 | C=C1CCC[C@H]2[C@](C)(CC3=CC(=O)C=C(NCCS(=O)(=O)O)C3=O)[C@@H](C)CC[C@@]12C | 32 (≈ 73.5 µM) | > 128 | > 128 | 16 (≈ 36.7 µM) | 4.2 | 8 (≈ 18.4 µM) | > 128 | 6.9 | 272 | 32 (≈ 73.5 µM) | 82.2 | 128 (≈ 294 µM) | 43.5 (≈ 99.9 µM) | 64 (≈ 147 µM) | 32 (≈ 73.5 µM)
4 | C=C1CCC[C@@]23Oc4ccc(O)cc4C[C@]2(C)[C@@H](C)CC[C@@]13C | 2 (≈ 6.4 µM) | > 128 | > 128 | > 128 | 5.9 | 1 (≈ 3.2 µM) | > 128 | 4.8 | > 410 | 1 (≈ 3.2 µM) | 69.1 | 8 (≈ 25.6 µM) |  | 2 (≈ 6.4 µM) | 1 (≈ 3.2 µM)
5 | C=C1CCC[C@@]23C4=C(C[C@]2(C)[C@@H](C)CC[C@@]13C)C(=O)C=C(NCCS(=O)(=O)O)C4=O | > 128 | > 128 | > 128 | > 128 | 2.3 | 128 (≈ 295 µM) | > 128 | 1.1 | > 295 | > 128 | 285 | > 128 |  | > 128 | > 128
6 | C=C1CCC[C@@]23C4=C(C[C@]2(C)[C@@H](C)CC[C@@]13C)C(=O)C(OC)=CC4=O | 16 (≈ 47 µM) | > 128 | > 128 | > 128 | 3.3 | 8 (≈ 23.5 µM) | > 128 | 0.7 |  | 16 (≈ 47 µM) | > 376 | > 128 | > 128 | > 128 | 16 (≈ 47 µM)
7 | O=C(O)CC[N+](=O)[O-] |  |  |  |  |  |  |  |  |  |  |  |  | 2.5 (≈ 21 µM) |  | 
8 | C[C@@H]1[C@H](O)[C@@H](C)/C=C/C=C/C=C/C=C/C=C/C=C/C=C/[C@H](O[C@@H]2O[C@H](C)[C@@H](O)[C@H](N)[C@@H]2O)C[C@@H]2O[C@](O)(C[C@@H](O)C[C@@H](O)[C@H](O)CC[C@@H](O)C[C@@H](O)CC(=O)O[C@H]1C)C[C@H](O)[C@H]2C(=O)O [AMPHOTERICIN B] |  | 1 (≈ 1.08 µM) |  | 0.5 (≈ 0.541 µM) |  |  | 8 (≈ 8.66 µM) |  |  |  |  | 4 (≈ 4.33 µM) |  |  | 
9 | CC1(C)S[C@@H]2[C@H](NC(=O)[C@H](N)c3ccccc3)C(=O)N2[C@H]1C(=O)O [AMPICILLIN] | < 0.06 |  | 4 (≈ 11.4 µM) |  |  | < 0.06 |  |  |  | 0.06 (≈ 0.172 µM) |  |  |  | 0.13 (≈ 0.372 µM) | < 0.06
10 | C=C1CCC[C@H]2[C@](C)(Cc3cc(O)ccc3O)[C@@H](C)CC[C@@]12C [ARENAROL] | 2 (≈ 6.36 µM) | 4 (≈ 12.7 µM) | > 128 | 4 (≈ 12.7 µM) | 3.7 | 4 (≈ 12.7 µM) | > 128 | 3.4 | > 407 | 4 (≈ 12.7 µM) | 11.4 | 8 (≈ 25.4 µM) |  | 4 (≈ 12.7 µM) | 4 (≈ 12.7 µM)
11 | COc1ccc2cc3[n+](cc2c1OC)CCc1cc2c(cc1-3)OCO2 [BERBERINE CHLORIDE] |  |  |  |  |  |  |  |  | 109 |  |  |  |  |  | 
